Experimental data: the NIST ThermoML archive (doi:10.1016/j.jct.2009.11.014)

Settings: Liquid; for mass density: vibrating tube; for viscosity: Stony Brook Scientific falling needle HPHTV-100 viscometer

CCCCn1cc[n+](C)c1.F[B-](F)(F)F [1-butyl-3-methylimidazolium tetrafluoroborate]
Settings	mass density [kg/m3]	viscosity [mPa·s]
303.15 K, 8000 kPa	1201.78	–
303.15 K, 8180 kPa	–	88.3
303.15 K, 10000 kPa	1202.7	–
303.15 K, 10200 kPa	–	89.8
303.15 K, 12000 kPa	1203.62	–
303.15 K, 12110 kPa	–	91
303.15 K, 14000 kPa	1204.52	–
303.15 K, 14200 kPa	–	92.5
303.15 K, 14290 kPa	–	91.7
303.15 K, 20000 kPa	1207.18	–
303.15 K, 30000 kPa	1211.54	–
303.15 K, 40000 kPa	1215.79	–
303.15 K, 50000 kPa	1219.9	–
303.15 K, 60000 kPa	1223.89	–
308.15 K, 100 kPa	1194.52	–
308.15 K, 2000 kPa	1195.44	–
308.15 K, 4000 kPa	1196.38	–
308.15 K, 6000 kPa	1197.34	–
308.15 K, 8000 kPa	1198.26	–
308.15 K, 10000 kPa	1199.2	–
308.15 K, 12000 kPa	1200.1	–
308.15 K, 14000 kPa	1201.03	–
308.15 K, 20000 kPa	1203.74	–
308.15 K, 30000 kPa	1208.15	–
308.15 K, 40000 kPa	1212.4	–
308.15 K, 50000 kPa	1216.54	–
308.15 K, 60000 kPa	1220.57	–
313.15 K, 100 kPa	1191.01	–
313.15 K, 2000 kPa	1191.92	–
313.15 K, 4000 kPa	1192.9	–
313.15 K, 6000 kPa	1193.86	–
313.15 K, 8000 kPa	1194.8	–
313.15 K, 10000 kPa	1195.75	–
313.15 K, 12000 kPa	1196.67	–
313.15 K, 14000 kPa	1197.1	–
313.15 K, 20000 kPa	1200.34	–
313.15 K, 30000 kPa	1204.81	–
313.15 K, 40000 kPa	1209.11	–
313.15 K, 50000 kPa	1213.28	–
313.15 K, 60000 kPa	1217.34	–
313.45 K, 14310 kPa	–	59.4
313.55 K, 120 kPa	–	51.2
313.55 K, 710 kPa	–	51.7
313.55 K, 1650 kPa	–	52.3
313.55 K, 2690 kPa	–	52.5
313.55 K, 4250 kPa	–	53.4
313.55 K, 6260 kPa	–	54.3
313.55 K, 8200 kPa	–	54.9
313.55 K, 10200 kPa	–	56.2
318.15 K, 100 kPa	1187.48	–
318.15 K, 2000 kPa	1188.43	–
318.15 K, 4000 kPa	1189.42	–
318.15 K, 6000 kPa	1190.39	–
318.15 K, 8000 kPa	1191.39	–
318.15 K, 10000 kPa	1192.31	–
318.15 K, 12000 kPa	1193.27	–
318.15 K, 14000 kPa	1194.22	–
318.15 K, 20000 kPa	1196.98	–
318.15 K, 30000 kPa	1201.46	–
318.15 K, 40000 kPa	1205.83	–
318.15 K, 50000 kPa	1210.05	–
318.15 K, 60000 kPa	1214.15	–
323.15 K, 100 kPa	1184	–
323.15 K, 2000 kPa	1184.97	–
323.15 K, 4000 kPa	1185.97	–
323.15 K, 6000 kPa	1186.94	–
323.15 K, 8000 kPa	1187.91	–
323.15 K, 10000 kPa	1188.88	–
323.15 K, 12000 kPa	1189.84	–
323.15 K, 14000 kPa	1190.78	–
323.15 K, 20000 kPa	1193.6	–
323.15 K, 30000 kPa	1198.15	–
323.15 K, 40000 kPa	1202.55	–
323.15 K, 50000 kPa	1206.8	–
323.15 K, 60000 kPa	1210.94	–
324.8 K, 630 kPa	–	34.5
324.82 K, 120 kPa	–	34.3
324.85 K, 1700 kPa	–	34.8
324.85 K, 2590 kPa	–	35.2
324.85 K, 4050 kPa	–	35.3
324.85 K, 4260 kPa	–	35.8
324.85 K, 6160 kPa	–	36.5
324.85 K, 8160 kPa	–	36.7
324.85 K, 10450 kPa	–	37.5
324.85 K, 12130 kPa	–	38.4
324.85 K, 14150 kPa	–	39
